The data set relates to pilocarpine model. Description: pilocarpine model, oral test compound 10 minutes before intraperitoneal pilocarpine. In kind it is in vivo, Mus musculus or mouse. The method, then:
In some instances, the anticonvulsive effects of the composition of the invention have been evaluated in vivo upon oral administration to animals. The pharmaceutical composition of the invention was administered to mammals (Mus musculus or mouse) with oral dose of treatment, as compared to other compounds or to saline control. In these experiments, the test compounds were administered orally 10 minutes prior to the (intraperitoneal) administration of pilocarpine. Pilocarpine hydrochloride (320 mg/kg, Merck), dissolved in 0.9% sterile saline, was given intraperitoneally for induction of SE (status epileticus) (Turski et al., 1983). In the Turski model, the neurotoxic effects begin about 15-25 minutes after the injection of Pilo, with the occurrence of motor and limbic seizures, the animals evolving to a state of continuous (clonic) seizures that characterize SE Sanabria and Cavalheiro, 2000).
In this embodiment, the anticonvulsant effect of the composition of the invention prepared according to example 1 was evaluated by prior administration of the inventive composition and subsequent administration of pilocarpine to animals. Administration of pilocarpine leads to severe brain damage, neurotoxicity, and usually culminates in the death of animals.
The composition of the invention prepared according to Example 1 was pre-administered to the animals.

[1] abbreviates: 1000 μg/kg oral, group n=5, pilocarpine 320 mg/kg i.p.

Some results are limits rather than exact numbers.

`CC(C)C[C@H](NC(=O)[C@H](Cc1ccccc1)NC(=O)[C@H](CCCCN)NC(=O)[C@H](Cc1ccccc1)NC(=O)[C@H](CC(N)=O)NC(=O)[C@@H](NC(=O)[C@@H]1CCCN1)C(C)C)C(=O)N[C@@H](CO)C(=O)N[C@@H](Cc1cnc[nH]1)C(=O)O` [Hp, PVNFKFLSH]: the “survival time compared with control (FIG. 1)” value (600 μg/kg oral) is given as “not statistically significant”. Moreover, under setting [1], the “number of animals that died in the group” value was “one” and the “remaining animals that remained alive for more than a week” value was determined as 4. Further, under “1000 μg/kg oral, versus control, Hp 600 μg/kg, DIIADDEPLT 1000 μg/kg”, the “mean survival time for the group” value was “significantly different and higher than the others”. Besides, under “oral administration, mice”, the “occurrence of typical side effects of other anticonvulsants, such as prostration and nasal bleeding” value is “has not been observed”. Besides, the “brain injury related symptoms and survival after pilocarpine” value (prior oral administration of the composition of Example 1) is “the vast majority of the animals subjected to these experiments had no brain injury related symptoms and survived without apparent damage”. The “time for the occurrence of the first salivation (FIG. 4)” value (prior oral administration, pilocarpine-induced salivation) is given as “substantial change in the time profile for the occurrence of the first salivation”. Besides, the “time for the occurrence of the first seizure (FIG. 6), P vs Control, Hp 600 μg/kg, Pep19 1000 μg/kg” value (starred group, by exclusion Hp 1000 μg/kg oral) is under 0.001.
As to “DIIADDEPLT [peptide used as another control, reference compound]”, where the note is “1000 μg/kg oral”, the “survival time compared with control (FIG. 1)” value is listed as “not statistically significant”.
